Laboratory results as given in patent US8800906B2, “Use of transforming growth factor-beta neutralizing antibodies and fusion proteins thereof in treating pain” (The Board of Trustees of the Leland Stanford Junior …, priority 2010, dated 2014).

What was measured:
SMAD3 [1] = details: cited from earlier work
SMAD3 [2] = target: T1, SMAD3 (Rattus norvegicus, UniProt P84025); experiment: Excitability of DRG neurons with TGF-β and SIS3; type: cell-based; details: SIS3 3 μM
T1 construct: endogenous in cells; host or cells: primary DRG neurons
T1 sequence (P84025 whole entry): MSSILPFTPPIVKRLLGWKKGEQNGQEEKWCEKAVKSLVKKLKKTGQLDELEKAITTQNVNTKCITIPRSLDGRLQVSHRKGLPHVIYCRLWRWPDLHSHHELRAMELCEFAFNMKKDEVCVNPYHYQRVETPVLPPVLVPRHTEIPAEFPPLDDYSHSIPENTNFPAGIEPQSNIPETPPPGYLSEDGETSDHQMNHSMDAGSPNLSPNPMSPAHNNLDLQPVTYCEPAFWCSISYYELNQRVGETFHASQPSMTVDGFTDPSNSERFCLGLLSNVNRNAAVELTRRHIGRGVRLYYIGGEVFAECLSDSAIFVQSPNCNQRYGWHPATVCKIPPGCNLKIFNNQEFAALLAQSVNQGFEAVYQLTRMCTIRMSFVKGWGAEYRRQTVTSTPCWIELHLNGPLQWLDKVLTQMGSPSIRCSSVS
Protocol: SIS3 was dissolved in DMSO and diluted in culture media that was added at the time of plating with a final concentration of 3 μM. After one hour, the culture wells received TGF-β1 (0.2 ng/ml) for further incubation. Most cells were patched at 12-24 h, and both agents were refreshed daily if incubated for over 24 h.

SMAD3 [3] = target: SMAD3 (Homo sapiens, UniProt P84022); details: cited from earlier work
SMAD3 (Homo sapiens, UniProt P84022), sequence (P84022 whole entry): as the sequence (P84025 whole entry) above

TRPV1 = target: T2, TRPV1 (Rattus norvegicus, UniProt O35433); experiment: Capsaicin-induced inward current in DRG neurons; type: cell-based
T2 construct: endogenous in cells; host or cells: primary rat DRG neurons
T2 sequence (O35433 whole entry): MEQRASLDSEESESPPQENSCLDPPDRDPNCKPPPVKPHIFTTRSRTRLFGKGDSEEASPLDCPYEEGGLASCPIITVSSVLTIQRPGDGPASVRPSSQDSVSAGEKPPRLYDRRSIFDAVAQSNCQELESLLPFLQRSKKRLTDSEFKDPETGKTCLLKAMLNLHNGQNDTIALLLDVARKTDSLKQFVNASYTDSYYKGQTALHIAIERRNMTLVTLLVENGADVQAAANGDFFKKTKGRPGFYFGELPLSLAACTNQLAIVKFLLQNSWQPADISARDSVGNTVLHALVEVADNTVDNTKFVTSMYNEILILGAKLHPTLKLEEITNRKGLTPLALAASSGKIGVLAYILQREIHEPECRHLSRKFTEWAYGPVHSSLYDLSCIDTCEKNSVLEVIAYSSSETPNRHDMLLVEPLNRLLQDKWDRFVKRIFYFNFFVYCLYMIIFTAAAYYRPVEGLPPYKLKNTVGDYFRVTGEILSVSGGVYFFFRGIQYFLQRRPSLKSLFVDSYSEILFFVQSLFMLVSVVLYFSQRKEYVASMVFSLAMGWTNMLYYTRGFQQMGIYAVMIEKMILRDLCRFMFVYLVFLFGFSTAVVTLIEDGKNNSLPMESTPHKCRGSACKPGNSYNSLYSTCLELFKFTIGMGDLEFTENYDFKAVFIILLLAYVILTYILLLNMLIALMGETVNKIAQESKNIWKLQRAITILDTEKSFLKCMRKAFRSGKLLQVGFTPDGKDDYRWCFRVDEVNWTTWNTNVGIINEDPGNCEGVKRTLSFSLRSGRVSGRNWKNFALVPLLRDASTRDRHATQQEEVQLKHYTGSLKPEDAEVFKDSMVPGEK
Protocol: (§1) Electrophysiology. Whole-cell voltage patch-clamp recordings were conducted at room temperature (22-23° C.) on the stage of an inverted phase contrast microscope (Nikon Inc., Melville, N.Y.). The recording pipettes were pulled from borosilicate glass to give final resistances of […]. Data were acquired with Digidata interface (1200 series, Axon Instruments) and pClamp software (version 9.1, Axon Instruments). The concentrations of the electrode solutions (in mM) used in these experiments were as follows: for recording action potential, K^+ current and non-selective cationic current (pH adjusted to 7.3-7.4 using KOH): potassium gluconate (115), KCl (25), NaCl (5), HEPES (10), CaCl (1), EGTA (1.12) and ATP-Mg (2); for recording Na^+ current (pH adjusted to 7.3-7.4 using NaOH): CsF (110), MgCl2 (5), EGTA (11), NaCl (10) and HEPES (10). The cells were bathed in modified Tyrode saline consisting of (in mM): NaCl (135), KCl (5.4), MgCl2 (1), CaCl2 (2), NaH2PO3 (0.1), HEPES (10) and glucose (10). […] Action potentials were recorded in mode of I-clamp after observed membrane potential setting at I=0, and the currents were recorded by switching mode to v-clamp. The current signals were recorded to disk for off-line analysis using pCLAMP fit and Origin 7. Results were expressed as means±SE, n=number of cells. […]

[4] = tested on: TGF-β1, TGF-β2, and TGF-β3; details: cited from earlier work
sodium channel = experiment: Sodium channel currents in DRG neurons; type: cell-based, rat
Protocol: as §1

rat DRG neurons = experiment: Whole-cell patch-clamp excitability of cultured DRG neurons; type: cell-based
Protocol: Dorsal Root Ganglia (DRG) neurons culture. Adult Sprague-Dawley rats (120-150 g) were sacrificed by decapitation. Thoracic and lumbar DRGs were then bilaterally dissected out and transferred to ice-cold Minimal Essential Medium (Gibco, Grand Island, N.Y.) supplemented with penicillin-streptomycin (2×, Gibco, Grand Island, N.Y.). After trimming axons and connective tissue, ganglia were transferred into enzyme solution, i.e., Hank's Balanced Salt Solution containing 5 mg/ml collagenase (Type 2, Worthington, Lakewood, N.J.), and incubated for three hours at 5% CO2-95% O2 37° C. A pellet was subsequently obtained by repeated trituration through flame-polished glass pipettes and centrifuged at 50×g for 10 minutes. Single cells were resuspended and plated onto poly-1-ornithine (Sigma) coated coverslips with neurobasal media (Gibco) supplemented with albumin solution (0.7%, Sigma), penicillin-streptomycin (2×), B27 with retinoic acid (2×, Invitrogen), beta-mercaptoethanol (0.11 mM, Gibco), mouse nerve growth factor ([…], Promega, Madison, Wis.) and L-glutamine (2×, Gibco). Recombinant TGF-β1 and TGF-β2 (Calbiochem, cat #616455, PF017) were dissolved in 10% ethanol in phosphate buffered saline (PBS) to yield a stock concentration of 10 ng/μl. TGF-β1 or TGF-β2 (10 ng/ml) was added to cultures at the beginning of incubation at 37° C. 5% CO2-95% O2.
Electrophysiology. Whole-cell voltage patch-clamp recordings were conducted at room temperature (22-23° C.) on the stage of an inverted phase contrast microscope (Nikon Inc., Melville, N.Y.). The recording pipettes were pulled from borosilicate glass to give final resistances of […]. Data were acquired with Digidata interface (1200 series, Axon Instruments) and pClamp software (version 9.1, Axon Instruments). The concentrations of the electrode solutions (in mM) used in these experiments were as follows: for recording action potential, K^+ current and non-selective cationic current (pH adjusted to 7.3-7.4 using KOH): potassium gluconate (115), KCl (25), NaCl (5), HEPES (10), CaCl (1), EGTA (1.12) and ATP-Mg (2); for recording Na^+ current (pH adjusted to 7.3-7.4 using NaOH): CsF (110), MgCl2 (5), EGTA (11), NaCl (10) and HEPES (10). The cells were bathed in modified Tyrode saline consisting of (in mM): NaCl (135), KCl (5.4), MgCl2 (1), CaCl2 (2), NaH2PO3 (0.1), HEPES (10) and glucose (10). The osmolality was maintained at 280-300 mOsm for the intracellular electrolyte and 300-330 mOsm for the extracellular bath solution. […] Action potentials were recorded in mode of I-clamp after observed membrane potential setting at I=0, and the currents were recorded by switching mode to v-clamp. The current signals were recorded to disk for off-line analysis using pCLAMP fit and Origin 7. Results were expressed as means±SE, n=number of cells.

Kv channels = experiment: Voltage-dependent K+ currents in DRG neurons; type: cell-based, rat
Protocol: (§2) Electrophysiology. Whole-cell voltage patch-clamp recordings were conducted at room temperature (22-23° C.) on the stage of an inverted phase contrast microscope (Nikon Inc., Melville, N.Y.). The recording pipettes were pulled from borosilicate glass to give final resistances of […]. Data were acquired with Digidata interface (1200 series, Axon Instruments) and pClamp software (version 9.1, Axon Instruments). The concentrations of the electrode solutions (in mM) used in these experiments were as follows: for recording action potential, K^+ current and non-selective cationic current (pH adjusted to 7.3-7.4 using KOH): potassium gluconate (115), KCl (25), NaCl (5), HEPES (10), CaCl (1), EGTA (1.12) and ATP-Mg (2); for recording Na^+ current (pH adjusted to 7.3-7.4 using NaOH): CsF (110), MgCl2 (5), EGTA (11), NaCl (10) and HEPES (10). The cells were bathed in modified Tyrode saline consisting of (in mM): NaCl (135), KCl (5.4), MgCl2 (1), CaCl2 (2), NaH2PO3 (0.1), HEPES (10) and glucose (10). The osmolality was maintained at 280-300 mOsm for the intracellular electrolyte and 300-330 mOsm for the extracellular bath solution. Agents such as capsaicin, capsazepine, TEA, 4AP, TTX etc were delivered through a valve control system (BPS-4, Scientific Instrument, New York). Prior to patch clamping a cell, the amplifier (Axopatch 200B, Axon Instruments, CA, USA) was zeroed so that any junction potential was balanced by an offset potential. High resistance (Gigaohm) seals were formed between the recording electrode and cell membrane and ruptured by suction using standard patch clamp recording methods. Action potentials were recorded in mode of I-clamp after observed membrane potential setting at I=0, and the currents were recorded by switching mode to v-clamp. The current signals were recorded to disk for off-line analysis using pCLAMP fit and Origin 7. Results were expressed as means±SE, n=number of cells.
TGF-β influences K^+ and Na^+ channel activity (FIGS. 6 and 7). Voltage-dependent potassium (Kv) currents play a fundamental role in determining neuronal excitability. […]

DRG neurons = experiment: Patch-clamp excitability of DRG neurons from transgenic mice lacking glial TGF-β receptor response; type: cell-based, mouse
Text: Transgenic mice. To decrease the response to TGF-β specifically in astrocytes, we took advantage of a dominant negative mutation in the type II TGF-β receptor that has been cloned into a bidirectional doxycycline-regulatable element (bi-tetO) that also drives enhanced green fluorescent protein (GFP). Andrews, Z. B. et al., 2006 Neurobiol Dis. 21, 568-75. TetO-TBR2-DN mice were obtained from Jackson Laboratories, Bar Harbor, Me. This line was crossed to a GFAP-tTA transgenic line (Jackson Laboratories). This line confers expression of tetO transgenes to astrocytes in the absence of doxycycline, and is induced by injuries, including stroke. DRGs were dissected from these mice and cultured as above.
as §2

conscious rats = experiment: Nocifensive behaviors to electrical stimulation of the pancreas after intrapancreatic infusion of TGF-β; type: in vivo; details: intra-pancreatic infusion, 400 ng per rat
Protocol: Intrapancreatic infusion of TGF-β. Rats were anesthetized with sodium nembutal (Abbott Laboratories, Chicago, Ill.) (50 mg/kg body weight, i.p.). The peritoneum was incised to expose the duodenum, and the duodenal loop was pulled out. The pancreatic duct entering the duodenum was identified under dissecting microscope, and a small niche was made into the duct with a 30-gauge needle. A polyethylene 10 tubing (0.61 mm outer diameter) (Becton Dickinson and Company, Franklin Lakes, N.J.) was guided into the duct and tied to secure its position. The position of the tube in the pancreatic duct was confirmed by observing bile flowing through the tubing. The common bile duct was ligated close to the liver to prevent entry of the injected substance into the liver. Similarly the duct was ligated near its entry into the duodenum. Four hundred μl (0.4 ml) per rat of 400 ng of TGF-β1 or TGF-β2 in 10% ethanol in phosphate buffered saline (PBS) or vehicle alone was injected through a syringe connected to the tubing. The tubing was carefully removed and bile flow from the liver into the duodenum was re-established. The abdominal cavity was closed with sutures and rats allowed to recover.
Behavioral Studies of Rats with Chronic Pancreatitis. […] The number of nocifensive behaviors observed during 5 min of stimulation period was counted. […]

[5] = tested on: spinal cord laminae I/II FOS positive cells; experiment: FOS immunochemistry in spinal cord after intrapancreatic TGF-β infusion and electrical stimulation; type: in vivo, rat; details: intra-pancreatic infusion 400 ng followed by ES
Protocol: FOS Immunochemistry. Eight rats were used for this experiment (TGF-β n=4; Vehicle n=4). TGF-β2 (400 ng) in 0.4 ml of 10% ETOH/PBS or vehicle alone were infused into pancreatic duct of rats. 24 hours later rats underwent noxious electrical stimulation of the pancreas (5 mA for 5 minutes). Thirty minutes later the rats were transcardially perfused with 150 ml of normal saline followed by ice cold 400 ml of 4% paraformaldehyde in 0.1M phosphate buffer (PB) pH 7.4. Spinal cord segments corresponding to DRG T8-T10 were identified, cut and post-fixed in 4% paraformaldehyde over night. The samples were then transferred to 30% sucrose in 0.1 M PB for 24 hours at 4° C. followed by freezing on dry ice with optimum cutting temperature (OCT). Frozen serial coronal sections (35 μm) were cut on a cryostat, collected in separate wells of a 24-well plate and stored floating in antifreeze at −20° C. We processed a total of 6 sections per segment. The sections were stained with a rabbit polyclonal primary antiserum directed against FOS (ab7963, Abcam, Cambridge Mass.), diluted (1:2000) in PB saline containing 3% normal goat serum and 0.1% Triton X-100, for 24 h at 4° C. […] The number of FOS positive cells in spinal cord laminae I/II were counted under 40× magnification from 6 slices per individual spinal segment per animal by two blinded investigators.

NC(=O)c1ccc(-c2nc(-c3ccc4c(c3)OCO4)c(-c3ccccn3)[nH]2)cc1 [SB431542]
Smad3 phosphorylation (SMAD3 [1]): selective inhibition of Smad3 phosphorylation

Cc1cc2c(cc1C)CN(C(=O)/C=C/c1c(-c3ccccc3)n(C)c3ncccc13)CC2.Cl [SIS3]
decrease in RMP induced by TGFβ (SMAD3 [2]; TGF-β 10 ng/ml, 48 hours): prevented the decrease in RMP
TGF-β1 induced changes in frequency of action potentials at 2× rheobase current (SMAD3 [2]; TGF-β1 0.2 ng/ml): attenuate
TGF-β1 induced changes in resting membrane potential (RMP) (SMAD3 [2]; TGF-β1 0.2 ng/ml): attenuate
TGF-β1 induced changes in rheobase (SMAD3 [2]; TGF-β1 0.2 ng/ml): attenuate
production of extracellular matrix (SMAD3 [3]; TGF-β1-treated normal fibroblasts and scleroderma fibroblasts): blocked excessive production of extracellular matrix
Smad3 phosphorylation (SMAD3 [3]): suppresses Smad3 phosphorylation

Oc1cc2c(cc1O)CN(C(=S)NCCc1ccc(Cl)cc1)CCC2 [capsazepine, reference compound]
effect on capsaicin-induced inward current (TRPV1; middle sized neurons): suppressible

GC1008: humanized TGF-β-neutralizing monoclonal antibody
neutralization of TGF-β ligands/isoforms [4]: capable of neutralizing all three TGF-β isoforms

TGF-β
density of TTXR current (sodium channel; n=7): 114.25±27.32
density of total INa (sodium channel; n=23): 216.12±15.01
resting membrane potential (RMP) (rat DRG neurons; rat DRG cultures exposed to TGF-β, n=21): −48.8±7.6 mV
proportion of tested cells showing multiple action potentials (rat DRG neurons; rat DRG neurons): 43%
current pulse (rheobase) required for triggering an action potential (rat DRG neurons; rat DRG neurons, n=11): 0.15±0.09 nA
number of action potentials evoked by two times rheobase current stimulation (rat DRG neurons; rat DRG neurons, n=17): 2.75 Hz
tested neurons showing an absence of IA current (Kv channels; TGF-β treated neurons): 11 of 22
Itotal density (Kv channels; all Kv channels, DRG neurons in culture): did not result in a significant reduction
IA density (Kv channels; at +30 mV, n=10): 29.6±3.8 pA/pF
RMP (DRG neurons; transgenic mouse DRG preparations, 10 ng/ml): −49.7±5.5 mV
capsaicin induced current (TRPV1; neurons treated with TGF-β, n=17): 724.7±129.4 pA

TGF-β1: Recombinant TGF-β1 (Calbiochem)
rheobase (DRG neurons; transgenic mouse DRG): 0.03 nA
firing threshold (DRG neurons; transgenic mouse DRG, n=7): −35 mV
spikes (DRG neurons; transgenic mouse DRG, n=7): 2.8±1.5
behavioral response to noxious stimulation (electric stimulation, ES) (conscious rats): hyperalgesic behavioral response

B1: TGF-β2: Recombinant TGF-β2 (Calbiochem) (protein, UniProt P61812 303-414, looked up)
Transforming growth factor …: ALDAAYCFRNVQDNCCLRPLYIDFKRDLGWKWIHEPKGYNANFCAGACPYLWSSDTQHSRVLSLYNTINPEASASPCCVSQDLEPLTILYYIGKTPKIEQLSNMIVKSCKCS
modifications: Transforming growth factor beta-2
FOS expression in the spinal cord [5]: greater FOS expression
behavioral response to noxious stimulation (electric stimulation, ES) (conscious rats): hyperalgesic behavioral response
